Legend:
Experiment in all cases: normalised viability (% of control), CellTiter-Blue; higher = more viable cells (about 100 = DMSO control)
Settings in all cases: incubation time: 72 h
[1] = test system: CAL-148
Summary of the method: (§1)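 384-well plates were pre-loaded with compound in 5 µl medium before 20 µl of breast cancer cell suspension was seeded. Following 72 h incubation, 2.5 µl CellTiter-Blue reagent was added for 2 h at 37 °C. Fluorescence was read at 560/590 nm and plates were normalised to vehicle (100) and a positive kill control (0), checked by Z'-factor. Normalised viability is reported at a single listed concentration of the series.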

[2] = test system: HCC1143
Summary of the method: as §1

[3] = test system: HCC1937
Summary of the method: as §1

[4] = test system: CAL-51
Summary of the method: as §1

[5] = test system: HCC1599
Summary of the method: as §1

[6] = test system: DU-4475
Summary of the method: as §1

[7] = test system: MFM-223
Summary of the method: as §1

[8] = test system: MDA-MB-436
Summary of the method: as §1

[9] = test system: BT-549
Summary of the method: as §1

[10] = test system: MDA-MB-231
Summary of the method: as §1

[11] = test system: CAL-148; remark: listed apart in the source
Summary of the method: as §1

[12] = test system: HCC1143; remark: listed apart in the source
Summary of the method: as §1

[13] = test system: HCC1937; remark: listed apart in the source
Summary of the method: as §1

[14] = test system: CAL-120
Summary of the method: as §1

[15] = test system: CAL-51; remark: listed apart in the source
Summary of the method: as §1

[16] = test system: SK-BR-3
Summary of the method: as §1

[17] = test system: HCC1599; remark: listed apart in the source
Summary of the method: as §1

[18] = test system: DU-4475; remark: listed apart in the source
Summary of the method: as §1

[19] = test system: HDQ-P1
Summary of the method: as §1

[20] = test system: MFM-223; remark: listed apart in the source
Summary of the method: as §1

[21] = test system: BT-474
Summary of the method: as §1

[22] = test system: MDA-MB-453
Summary of the method: as §1

[23] = test system: MDA-MB-436; remark: listed apart in the source
Summary of the method: as §1

[24] = test system: MDA-MB-468
Summary of the method: as §1

[25] = test system: BT-549; remark: listed apart in the source
Summary of the method: as §1

[26] = test system: Hs578T
Summary of the method: as §1

[27] = test system: CAL-85-1
Summary of the method: as §1

C[C@@H]1C=C2C(=O)O[C@@H]3CC[C@H](C1)[C@]23O [Galiellalactone]
Settings | normalised viability [%]
[1], 50 nM | 104
[2], 500 nM | 106
[3], 500 nM | 90.9
[4], 50 nM | 106
[5], 500 nM | 91.1
[6], 50 nM | 117
[7], 500 nM | 92.8
[8], 500 nM | 90.1
[9], 500 nM | 105
[10], 500 nM | 91.8
[11], 15 nM | 99.7
[11], 150 nM | 108
[11], 500 nM | 103
[12], 50 nM | 90.8
[12], 5000 nM | 104
[12], 50000 nM | 86.9
[13], 50 nM | 132
[13], 5000 nM | 79.4
[13], 50000 nM | 22.8
[14], 50 nM | 88.6
[14], 5000 nM | 89.9
[14], 50000 nM | 83.8
[15], 15 nM | 108
[15], 150 nM | 104
[15], 500 nM | 102
[16], 50 nM | 105
[16], 5000 nM | 85.2
[16], 50000 nM | 6.84
[17], 50 nM | 95.2
[17], 5000 nM | 89.8
[17], 50000 nM | 67.5
[18], 15 nM | 103
[18], 150 nM | 92.2
[18], 500 nM | 95.5
[19], 15 nM | 108
[19], 150 nM | 96
[19], 500 nM | 116
[20], 50 nM | 90.6
[20], 5000 nM | 95.5
[20], 50000 nM | 40.4
[21], 50 nM | 131
[21], 5000 nM | 98.9
[21], 50000 nM | 27.4
[22], 15 nM | 114
[22], 150 nM | 91.2
[22], 500 nM | 98.4
[23], 50 nM | 98.2
[23], 5000 nM | 76.6
[23], 50000 nM | 21.9
[24], 50 nM | 101
[24], 5000 nM | 80.4
[24], 50000 nM | 33.6
[25], 50 nM | 83.9
[25], 5000 nM | 59.9
[25], 50000 nM | 7.58
[26], 50 nM | 121
[26], 5000 nM | 115
[26], 50000 nM | 50.9
[27], 15 nM | 95.8
[27], 150 nM | 90.5
[27], 500 nM | 108

COC1=C2C[C@@H](C)C[C@H](OC)[C@H](O)[C@@H](C)/C=C(\C)[C@H](OC(N)=O)[C@@H](OC)/C=C\C=C(/C)C(=O)NC(=CC1=O)C2=O [Geldanamycin]
Settings | normalised viability [%]
[1], 10 nM | 104
[2], 100 nM | 44.3
[3], 100 nM | 31.3
[4], 10 nM | 104
[5], 100 nM | 83.9
[6], 10 nM | 119
[7], 100 nM | 50.6
[8], 100 nM | 20
[9], 100 nM | 39.3
[10], 100 nM | 31.4
[11], 3 nM | 102
[11], 30 nM | 110
[11], 100 nM | 108
[12], 10 nM | 90.2
[12], 1000 nM | 38.3
[12], 10000 nM | 24.9
[13], 10 nM | 115
[13], 1000 nM | 30.1
[13], 10000 nM | 21.3
[14], 10 nM | 91
[14], 1000 nM | 13.6
[14], 10000 nM | 6.18
[15], 3 nM | 109
[15], 30 nM | 100
[15], 100 nM | 95.4
[16], 10 nM | 101
[16], 1000 nM | 14.9
[16], 10000 nM | 9.38
[17], 10 nM | 113
[17], 1000 nM | 31.3
[17], 10000 nM | 20.1
[18], 3 nM | 106
[18], 30 nM | 113
[18], 100 nM | 73.2
[19], 3 nM | 124
[19], 30 nM | 104
[19], 100 nM | 44.8
[20], 10 nM | 103
[20], 1000 nM | 17.7
[20], 10000 nM | 8.14
[21], 10 nM | 127
[21], 1000 nM | 18.5
[21], 10000 nM | 16.4
[22], 3 nM | 121
[22], 30 nM | 97.3
[22], 100 nM | 51.3
[23], 10 nM | 107
[23], 1000 nM | 15.7
[23], 10000 nM | 16.9
[24], 10 nM | 99
[24], 1000 nM | 11.2
[24], 10000 nM | 8.18
[25], 10 nM | 89.7
[25], 1000 nM | 18
[25], 10000 nM | 15.9
[26], 10 nM | 122
[26], 1000 nM | 31.1
[26], 10000 nM | 17.2
[27], 3 nM | 104
[27], 30 nM | 87.4
[27], 100 nM | 99.2
